Assay results reported in ChEMBL document CHEMBL2073761, “Celastraceae sesquiterpenes as a new class of modulators that bind specifically to human P-glycoprotein and reverse cellular multidrug resistance” (Cancer Res, 2004).

Target: ATP-dependent translocase ABCB1 (Homo sapiens, UniProt P08183)
Assay: TP_TRANSPORTER: efflux of Tetramethylrosamine in membrane vesicles from reconstituted PMPC proteoliposomes containing P-glycoprotein
Type: functional, cell membranes, Membrane vesicle from reconstituted proteoliposome

Chain of ATP-dependent translocase ABCB1 (P08183 whole entry): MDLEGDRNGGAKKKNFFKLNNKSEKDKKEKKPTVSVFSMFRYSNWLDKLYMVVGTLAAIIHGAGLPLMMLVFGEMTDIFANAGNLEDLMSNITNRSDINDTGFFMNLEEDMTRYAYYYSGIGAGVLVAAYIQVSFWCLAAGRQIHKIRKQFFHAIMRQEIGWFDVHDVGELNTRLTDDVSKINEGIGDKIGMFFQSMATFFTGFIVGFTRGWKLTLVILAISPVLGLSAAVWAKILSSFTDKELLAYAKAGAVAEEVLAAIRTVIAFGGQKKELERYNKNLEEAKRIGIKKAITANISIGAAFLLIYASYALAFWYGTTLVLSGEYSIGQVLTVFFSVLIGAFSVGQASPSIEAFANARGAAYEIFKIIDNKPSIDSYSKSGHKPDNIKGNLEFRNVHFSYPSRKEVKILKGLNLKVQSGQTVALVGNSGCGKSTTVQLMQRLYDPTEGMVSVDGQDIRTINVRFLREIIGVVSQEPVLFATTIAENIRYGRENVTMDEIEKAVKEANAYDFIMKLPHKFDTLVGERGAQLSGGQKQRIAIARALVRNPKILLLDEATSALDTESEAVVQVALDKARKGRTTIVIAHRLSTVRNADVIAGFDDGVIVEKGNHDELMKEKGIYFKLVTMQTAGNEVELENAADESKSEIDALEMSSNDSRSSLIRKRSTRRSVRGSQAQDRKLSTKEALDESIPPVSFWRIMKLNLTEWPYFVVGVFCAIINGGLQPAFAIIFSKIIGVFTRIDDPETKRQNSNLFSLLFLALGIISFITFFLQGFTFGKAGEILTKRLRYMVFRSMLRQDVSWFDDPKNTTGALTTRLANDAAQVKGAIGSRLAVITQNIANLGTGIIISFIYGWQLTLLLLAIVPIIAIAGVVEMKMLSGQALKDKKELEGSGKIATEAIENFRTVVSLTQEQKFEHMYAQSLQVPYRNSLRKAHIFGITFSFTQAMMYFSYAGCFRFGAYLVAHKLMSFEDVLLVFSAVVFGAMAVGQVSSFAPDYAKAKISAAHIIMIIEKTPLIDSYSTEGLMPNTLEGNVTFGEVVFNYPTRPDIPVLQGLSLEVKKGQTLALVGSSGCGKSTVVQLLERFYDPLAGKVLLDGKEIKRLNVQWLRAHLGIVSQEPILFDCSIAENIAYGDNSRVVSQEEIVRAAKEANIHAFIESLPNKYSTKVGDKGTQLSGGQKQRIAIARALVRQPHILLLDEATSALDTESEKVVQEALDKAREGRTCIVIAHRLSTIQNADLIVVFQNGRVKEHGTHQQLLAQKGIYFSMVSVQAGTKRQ

CN(C)c1ccc2c(-c3ccc(CCl)cc3)c3ccc(=[N+](C)C)cc-3oc2c1.[Br-] [TETRAMETHYLROSAMINE]
Activity: inhibitor [+]
